{P} = phosphate
Legend:
Type in all cases: cell-based, human
[1] = tested on: Jurkat cells; test: FACS analysis of propidium iodide stained Jurkat cells (cell cycle, sub-G0/G1 apoptosis)
Protocol: FIGS. 1A-1H show FACS analysis of propidium iodide stained Jurkat cells (immortalized T lymphocytes), treated with diluent (FIGS. 1A and 1E); 40 μM 11mer-1 pGTTAGGGTTAG (SEQ ID NO: 2) (FIGS. 1B and 1F); 40 μM 11mer-2 pCTAACCCTAAC (SEQ ID NO: 3) (FIGS. 1C and […]); 40 μM 11mer-3 pGATCGATCGAT (SEQ ID NO: 4) (FIGS. 1D and 1H). Jurkat cells were treated with the stated reagents for 48 hours before analysis (FIGS. 1A-1D) or 72 hours (FIGS. 1E-1H).
FIGS. 2A-2F are profiles showing the results of fluorescence activated cell sorting, for the following additions to the cells: FIG. 2A, diluent; FIG. 2B, 0.4 μM 11mer-1; FIG. 2C, 0.4 μM 11mer-1-S; FIG. 2D, diluent; FIG. 2E, 40 μM 11mer-1; FIG. 2F, 40 μM 11 mer-1-S.
Oligonucleotides homologous to the telomere overhang repeat sequence (TTAGGG; SEQ ID NO: 1), sequence (11mer-1: pGTTAGGGTTAG; SEQ ID NO: 2), complementary to this sequence (11mer-2: pCTAACCCTAAC; SEQ ID NO: 3) and unrelated to the telomere sequence (11mer-3: pGATCGATCGAT; SEQ ID NO: 4) were added to cultures of Jurkat cells, a line of human T cells reported to undergo apoptosis in response to telomere disruption. Within′ 48 hours, 50% of the cells treated with 40 μM of SEQ ID NO: 5 had accumulated in the S phase, compared to 25-30% for control cells (p<0.0003, non-paired t-test; see FIGS. 1A-1D), and by 72 hours, 13% of these cells were apoptotic as determined by a sub-G0/G1 DNA content, compared to 2-3% of controls (p<0.007, non-paired t-test; see FIGS. 1E-1H). At 96 hours, 20±3% of the 11mer-1 treated cells were apoptotic compared with 3-5% of controls (p<0.0001, non-paired t-test). To exclude preferential uptake of the 11mer-1 as an explanation of its singular effects, Jurkat cells were treated with oligonucleotides labeled on the 3′ end with fluorescein phosphoramidite, then subjected to confocal-microscopy and FACS analysis. The fluorescence intensity of the cells was the same after all treatments at 4 hours and 24 hours.
Cultures of Jurkat human T cells were treated with either diluent, 11mer-1 ([…]) or the phosphorothioate 11mer-1 (11mer-1-S) for 96 hours, then collected and processed for FACS analysis. Two concentrations of the oligonucleotides were tested, 0.4 μM (FIGS. 2A-2C) and 40 μM (FIGS. 2D-2F).

[2] = tested on: HT-1080 fibrosarcoma cells; test: BrdU incorporation assay, HT-1080 cells
Protocol: (§1) FIG. 13a: Exposure to T-oligo increases SA-β-Gal activity. HT-1080 cells were treated for 4 days with diluent alone or 40 μM T-oligo or the complementary control oligo, then stained and assayed for SA-β-Gal activity. FIG. 13b: Quantitative analysis of SA-β-Gal positive cells. Cells expressing SA-β-Gal activity were counted and presented as percentage of total cells in the cultures. Averages and standard deviations were calculated from 3 representative fields from each of 3 independent experiments. FIG. 13c: Effect of T-oligo on cell proliferation. Cells were treated for 4 days as in FIG. 12 and assayed for DNA synthesis by BrdU incorporation. FIG. 13d: Quantitative analysis of BrdU incorporation. Dark black nuclei indicate BrdU incorporated into nuclear DNA. BrdU positive cells were calculated and presented as percentage of total cells in the cultures. Averages and standard deviations were calculated from 3 representative fields from each of 3 independent experiments. FIG. 13e: Effect of T-oligo on pRb phosphorylation. Cells were treated as in FIG. 13a and were then collected for protein analysis by western blot using 30 μg total protein and probed for pRb-ser780*, ser795* and ser807/811* (pRb phosphorylated at serine 780, serine 795 and serine 807/811 respectively). Lanes D, T and C contain protein samples from cells treated with diluent, T-oligo and complementary oligo respectively. β-actin was used as a loading control.
Parallel cultures were treated as described in FIG. 13a. Cells were then washed once with PBS and refed with complete medium without additional treatment for 24 hours or 48 hours. FIG. 14a: SA-β-Gal activity. […]
HT-1080 fibrosarcoma cells cultured on Permanox chamber slides were treated with diluent, 40 μM T-oligo or 40 μM complementary oligo for 4 days and DNA synthesis was assayed using 5-bromo-2′-deoxy-uridine (BrdU) Labeling and Detection Kit II (Roche Molecular Biochemicals, Indianapolis, Ind.) following the protocol supplied by the manufacturer. […] After incubation with anti-mouse-Ig-alkaline phosphatase, the color reaction was detected by light microscopy. […]

[3] = tested on: pRb phosphorylation on serine 780, serine 795 and serine 807/811; test: Western blot of pRb phosphorylation in HT-1080 cells
Protocol: as §1, with “Lanes D, T and C contain protein samples from cells treated with diluent, T-oligo and complementary oligo respectively. β-actin was used as a loading control.” left out

pGTTAGGGTTAG (DNA, 5' {P}, backbone not given here; listed as Homo sapiens) [Oligonucleotide 11mer-1]
effect on exponentially growing cell cycle profile ([1]; 0.4 μM, 96 hours): neither of the oligonucleotides affected
cells accumulated in the S phase ([1]; 40 μM, 48 hours): 50%
apoptotic cells (sub-G0/G1 DNA content) ([1]; 40 μM, 72 hours): 13%
apoptosis (sub-G0/G1 peak) ([1]; 40 μM, 96 hours): induced extensive apoptosis
apoptotic cells ([1]; 96 hours): 20±3%
DNA synthesis (BrdU) after removal of oligo ([2]; HT-1080, 4 days 40 μM, then 1 and 2 days fresh medium without oligonucleotide): did not resume DNA synthesis
BrdU incorporation (BrdU positive cells) ([2]; HT-1080 cells, 40 μM, 4 days): 7±2%
state of pRb proteins after removal of oligo ([3]; HT-1080, 4 days 40 μM, then fresh medium without oligonucleotide): sustained in an active, inhibitory state
pRb phosphorylation on serine 780, serine 795 and serine 807/811 ([3]; HT-1080 cells, 40 μM, 4 days): striking and selective reduction

— patent US20060269924A1, “Modulation of telomere-initiated cell signaling” (TRUSTEES OF BOSTON UNIVERSITY, priority 2003, published 2006)
